Among the data in US20250120967A1, “TYROSINE KINASES INHIBITORS AND USES THEREOF” (GREAT NOVEL THERAPEUTICS BIOTECH & MEDICALS CORPORATION, priority 2023, published 2025) are inhibition values, retold here.

Common to all, as to test: Tyrosine kinase inhibition assay
Type in all cases: biochemical
What all share (details): single concentration 1.0 μM, read-out: percent inhibition

One assay addresses FGFR3 (Homo sapiens, UniProt P22607). The procedure, abridged:
(§1)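 Kinase activity was measured by Z′-LYTE peptide assay with ATP at the apparent Km, in kinase buffer (50 mM HEPES pH 7.5, 0.01% BRIJ-35, 10 mM MgCl2, 1 mM EGTA) with 1% DMSO final. Compounds were tested at a single 1.0 μM concentration and reported as percent inhibition; >80% counted as a hit.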

For the next assay, the target named is T1, EPHB1 (Homo sapiens, UniProt P54762).
T1 sequence (P54762 18-984): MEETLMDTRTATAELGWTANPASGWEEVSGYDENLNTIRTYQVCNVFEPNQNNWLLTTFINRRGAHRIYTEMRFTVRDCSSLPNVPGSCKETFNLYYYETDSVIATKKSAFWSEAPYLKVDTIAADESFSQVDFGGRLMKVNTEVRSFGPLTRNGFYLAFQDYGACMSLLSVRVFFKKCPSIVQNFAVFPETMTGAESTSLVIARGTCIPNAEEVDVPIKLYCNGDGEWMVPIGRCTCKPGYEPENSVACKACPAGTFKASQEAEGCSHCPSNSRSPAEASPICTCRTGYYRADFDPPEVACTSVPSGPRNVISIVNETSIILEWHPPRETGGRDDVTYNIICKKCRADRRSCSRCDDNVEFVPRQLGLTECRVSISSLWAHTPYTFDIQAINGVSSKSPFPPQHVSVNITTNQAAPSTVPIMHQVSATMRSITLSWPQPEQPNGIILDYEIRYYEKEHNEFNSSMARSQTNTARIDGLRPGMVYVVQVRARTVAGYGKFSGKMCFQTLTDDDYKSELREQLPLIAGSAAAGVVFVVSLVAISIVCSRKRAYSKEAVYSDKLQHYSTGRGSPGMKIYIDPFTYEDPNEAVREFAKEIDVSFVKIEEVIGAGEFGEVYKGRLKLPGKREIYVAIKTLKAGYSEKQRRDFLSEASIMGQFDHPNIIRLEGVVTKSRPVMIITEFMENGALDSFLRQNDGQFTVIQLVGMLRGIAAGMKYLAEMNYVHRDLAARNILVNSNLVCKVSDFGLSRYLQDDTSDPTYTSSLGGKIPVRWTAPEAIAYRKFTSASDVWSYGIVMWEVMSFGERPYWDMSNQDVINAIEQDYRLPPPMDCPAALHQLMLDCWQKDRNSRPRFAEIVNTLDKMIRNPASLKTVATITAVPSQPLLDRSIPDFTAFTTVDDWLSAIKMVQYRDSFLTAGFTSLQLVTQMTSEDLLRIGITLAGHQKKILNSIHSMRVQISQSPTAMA
In outline:
as §1

The next assay addresses TYK2 (Homo sapiens, UniProt P29597). The procedure, abridged: as §1
For the next assay, the target named is EPHA7 (Homo sapiens, UniProt Q15375). In outline:
as §1

For a further assay, the target named is BRAF (Homo sapiens, UniProt P15056). The procedure, abridged:
as §1

The next assay deals with ERBB2 (HER2) (Homo sapiens, UniProt P04626). In outline: as §1
Sequence of ERBB2 (HER2) (P04626 23-1255): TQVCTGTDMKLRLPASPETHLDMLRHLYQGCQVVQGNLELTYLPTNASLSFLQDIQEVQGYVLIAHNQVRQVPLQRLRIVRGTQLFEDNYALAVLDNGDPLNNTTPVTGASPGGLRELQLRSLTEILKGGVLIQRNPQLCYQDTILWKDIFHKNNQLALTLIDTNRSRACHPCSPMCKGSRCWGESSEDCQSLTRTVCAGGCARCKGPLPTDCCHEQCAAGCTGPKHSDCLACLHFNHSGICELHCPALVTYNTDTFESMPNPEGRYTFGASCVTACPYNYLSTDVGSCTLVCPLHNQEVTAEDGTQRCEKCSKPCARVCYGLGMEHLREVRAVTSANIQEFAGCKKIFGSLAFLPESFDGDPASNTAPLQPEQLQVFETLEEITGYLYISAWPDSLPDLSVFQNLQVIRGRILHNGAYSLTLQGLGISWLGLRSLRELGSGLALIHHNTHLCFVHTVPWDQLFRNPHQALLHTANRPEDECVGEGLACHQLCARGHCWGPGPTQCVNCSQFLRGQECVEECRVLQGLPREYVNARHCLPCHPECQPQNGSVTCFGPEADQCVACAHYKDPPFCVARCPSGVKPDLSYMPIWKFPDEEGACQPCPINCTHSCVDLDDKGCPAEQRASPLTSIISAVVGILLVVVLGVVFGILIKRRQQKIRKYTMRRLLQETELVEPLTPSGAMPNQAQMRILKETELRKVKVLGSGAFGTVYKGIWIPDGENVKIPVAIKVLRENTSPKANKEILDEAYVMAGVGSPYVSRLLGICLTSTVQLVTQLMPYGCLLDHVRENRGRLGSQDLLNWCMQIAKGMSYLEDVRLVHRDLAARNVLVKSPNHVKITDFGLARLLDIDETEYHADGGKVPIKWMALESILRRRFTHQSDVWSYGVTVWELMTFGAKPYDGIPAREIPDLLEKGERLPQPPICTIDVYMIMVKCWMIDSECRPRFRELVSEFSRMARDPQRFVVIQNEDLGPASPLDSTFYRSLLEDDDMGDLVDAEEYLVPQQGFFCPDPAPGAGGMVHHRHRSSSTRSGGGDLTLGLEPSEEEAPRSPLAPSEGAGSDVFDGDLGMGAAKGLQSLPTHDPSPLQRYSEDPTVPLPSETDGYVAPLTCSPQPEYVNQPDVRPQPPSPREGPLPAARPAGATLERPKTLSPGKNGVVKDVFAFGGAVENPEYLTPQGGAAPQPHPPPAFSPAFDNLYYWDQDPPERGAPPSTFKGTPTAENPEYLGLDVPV
The target in the next assay is PIK3CG (p110 gamma) (Homo sapiens, UniProt P48736). In outline:
as §1

The target of the next assay is T2, EPHA3 (Homo sapiens, UniProt P29320).
T2 sequence (P29320 21-983): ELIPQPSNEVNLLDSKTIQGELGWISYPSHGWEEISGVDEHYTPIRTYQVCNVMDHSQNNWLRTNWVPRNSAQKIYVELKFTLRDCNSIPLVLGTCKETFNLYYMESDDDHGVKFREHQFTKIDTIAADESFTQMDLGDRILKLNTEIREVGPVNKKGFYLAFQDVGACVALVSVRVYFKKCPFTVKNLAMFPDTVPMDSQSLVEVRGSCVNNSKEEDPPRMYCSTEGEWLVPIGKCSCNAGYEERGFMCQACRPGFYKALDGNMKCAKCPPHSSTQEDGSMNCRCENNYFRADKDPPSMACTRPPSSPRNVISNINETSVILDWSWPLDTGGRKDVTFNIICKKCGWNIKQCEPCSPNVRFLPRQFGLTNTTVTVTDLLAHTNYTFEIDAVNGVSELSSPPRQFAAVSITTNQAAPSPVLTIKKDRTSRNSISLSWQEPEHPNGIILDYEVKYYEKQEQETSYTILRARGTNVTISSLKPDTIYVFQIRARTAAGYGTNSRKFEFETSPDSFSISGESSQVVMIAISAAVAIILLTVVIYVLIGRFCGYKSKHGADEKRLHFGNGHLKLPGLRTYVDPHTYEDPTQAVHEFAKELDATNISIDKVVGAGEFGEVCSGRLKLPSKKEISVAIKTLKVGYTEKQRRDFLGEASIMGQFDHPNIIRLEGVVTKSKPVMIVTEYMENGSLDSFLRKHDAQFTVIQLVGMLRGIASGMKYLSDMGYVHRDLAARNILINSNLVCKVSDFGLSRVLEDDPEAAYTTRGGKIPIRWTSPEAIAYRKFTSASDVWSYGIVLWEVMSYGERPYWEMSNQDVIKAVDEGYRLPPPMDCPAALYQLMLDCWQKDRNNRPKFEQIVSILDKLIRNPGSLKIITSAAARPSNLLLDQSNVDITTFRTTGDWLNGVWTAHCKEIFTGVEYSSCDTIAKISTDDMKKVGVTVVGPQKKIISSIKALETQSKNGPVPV
The procedure, abridged: as §1

The target in another assay is PIK3C2A (PI3K-C2 alpha) (Homo sapiens, UniProt O00443). The procedure, abridged:
as §1

The target of the next assay is NTRK3 (TRKC) (Homo sapiens, UniProt Q16288). The procedure, abridged:
as §1

A further assay concerns the target BLK (Homo sapiens, UniProt P51451). In outline:
as §1

The structures appear in SMILES notation.

Sequence of TYK2 (P29597 whole entry): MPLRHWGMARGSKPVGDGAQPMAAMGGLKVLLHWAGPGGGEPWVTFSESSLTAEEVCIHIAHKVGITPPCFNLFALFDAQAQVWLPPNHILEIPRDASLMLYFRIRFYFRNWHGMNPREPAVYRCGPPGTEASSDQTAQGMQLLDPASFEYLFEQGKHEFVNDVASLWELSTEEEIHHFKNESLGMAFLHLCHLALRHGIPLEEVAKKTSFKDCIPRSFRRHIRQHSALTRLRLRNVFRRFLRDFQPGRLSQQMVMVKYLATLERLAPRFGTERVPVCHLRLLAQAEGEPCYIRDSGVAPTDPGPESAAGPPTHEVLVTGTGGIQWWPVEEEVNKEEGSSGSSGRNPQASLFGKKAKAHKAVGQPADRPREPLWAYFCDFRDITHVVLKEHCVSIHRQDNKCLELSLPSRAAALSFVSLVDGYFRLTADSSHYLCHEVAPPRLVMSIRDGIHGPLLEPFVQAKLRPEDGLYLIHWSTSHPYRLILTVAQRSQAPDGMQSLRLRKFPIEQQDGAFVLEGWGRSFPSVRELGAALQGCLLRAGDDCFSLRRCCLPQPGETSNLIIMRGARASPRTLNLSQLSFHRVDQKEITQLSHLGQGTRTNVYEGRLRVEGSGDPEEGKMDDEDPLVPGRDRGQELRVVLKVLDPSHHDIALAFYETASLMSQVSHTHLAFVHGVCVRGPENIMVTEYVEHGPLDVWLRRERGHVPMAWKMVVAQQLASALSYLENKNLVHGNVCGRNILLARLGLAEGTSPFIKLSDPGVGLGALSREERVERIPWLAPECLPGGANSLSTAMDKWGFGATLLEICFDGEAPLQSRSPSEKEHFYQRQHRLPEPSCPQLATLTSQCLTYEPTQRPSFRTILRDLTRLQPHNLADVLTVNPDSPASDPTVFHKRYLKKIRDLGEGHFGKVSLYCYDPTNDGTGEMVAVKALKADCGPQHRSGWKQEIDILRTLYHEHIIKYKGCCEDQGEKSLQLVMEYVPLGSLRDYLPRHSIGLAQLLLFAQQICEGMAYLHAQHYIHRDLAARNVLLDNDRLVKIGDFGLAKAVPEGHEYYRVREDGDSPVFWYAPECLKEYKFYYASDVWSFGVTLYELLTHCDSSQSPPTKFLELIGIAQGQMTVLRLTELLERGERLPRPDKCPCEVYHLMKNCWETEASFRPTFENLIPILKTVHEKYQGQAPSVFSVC
Sequence of PIK3C2A (PI3K-C2 alpha) (O00443 whole entry): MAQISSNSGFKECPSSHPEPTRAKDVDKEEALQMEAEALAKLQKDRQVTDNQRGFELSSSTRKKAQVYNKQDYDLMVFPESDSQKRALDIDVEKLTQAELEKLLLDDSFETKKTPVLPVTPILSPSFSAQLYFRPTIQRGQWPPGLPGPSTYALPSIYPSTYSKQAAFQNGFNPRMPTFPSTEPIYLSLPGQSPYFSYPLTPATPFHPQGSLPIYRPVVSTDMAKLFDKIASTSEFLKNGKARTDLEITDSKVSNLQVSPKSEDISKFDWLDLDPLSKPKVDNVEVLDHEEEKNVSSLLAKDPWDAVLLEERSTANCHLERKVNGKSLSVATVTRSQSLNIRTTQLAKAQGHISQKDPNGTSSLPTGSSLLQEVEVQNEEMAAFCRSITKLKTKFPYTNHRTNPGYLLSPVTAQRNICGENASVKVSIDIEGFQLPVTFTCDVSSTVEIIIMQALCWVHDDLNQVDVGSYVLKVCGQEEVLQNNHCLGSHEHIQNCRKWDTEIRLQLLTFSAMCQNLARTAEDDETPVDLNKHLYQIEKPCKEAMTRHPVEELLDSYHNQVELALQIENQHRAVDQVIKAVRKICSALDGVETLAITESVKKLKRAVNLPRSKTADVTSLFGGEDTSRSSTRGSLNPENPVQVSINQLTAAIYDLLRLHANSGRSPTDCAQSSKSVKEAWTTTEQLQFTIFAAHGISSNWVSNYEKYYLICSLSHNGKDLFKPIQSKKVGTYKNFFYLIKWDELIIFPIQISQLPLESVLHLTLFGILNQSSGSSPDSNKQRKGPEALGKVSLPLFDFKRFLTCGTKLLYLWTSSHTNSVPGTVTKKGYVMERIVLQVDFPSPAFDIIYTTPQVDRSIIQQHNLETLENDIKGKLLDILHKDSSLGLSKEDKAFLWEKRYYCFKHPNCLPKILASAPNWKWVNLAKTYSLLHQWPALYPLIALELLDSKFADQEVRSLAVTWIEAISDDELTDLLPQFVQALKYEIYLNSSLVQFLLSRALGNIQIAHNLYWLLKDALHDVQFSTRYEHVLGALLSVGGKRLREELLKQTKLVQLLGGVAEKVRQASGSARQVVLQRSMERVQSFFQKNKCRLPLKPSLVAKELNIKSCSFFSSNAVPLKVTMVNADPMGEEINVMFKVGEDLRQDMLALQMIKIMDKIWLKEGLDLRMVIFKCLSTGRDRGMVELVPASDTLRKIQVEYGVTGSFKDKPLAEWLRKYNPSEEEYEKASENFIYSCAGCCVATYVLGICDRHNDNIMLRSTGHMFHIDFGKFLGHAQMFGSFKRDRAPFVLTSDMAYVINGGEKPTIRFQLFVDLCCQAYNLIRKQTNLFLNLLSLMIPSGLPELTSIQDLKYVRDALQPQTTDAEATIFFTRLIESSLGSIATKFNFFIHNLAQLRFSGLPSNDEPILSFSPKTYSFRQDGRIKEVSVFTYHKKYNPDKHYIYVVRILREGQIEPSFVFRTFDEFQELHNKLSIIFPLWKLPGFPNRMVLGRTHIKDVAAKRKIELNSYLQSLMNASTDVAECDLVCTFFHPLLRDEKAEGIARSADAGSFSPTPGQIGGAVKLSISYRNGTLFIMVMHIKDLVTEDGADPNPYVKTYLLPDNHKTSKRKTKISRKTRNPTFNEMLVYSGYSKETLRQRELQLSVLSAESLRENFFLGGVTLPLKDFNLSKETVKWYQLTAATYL
Sequence of BLK (P51451 whole entry): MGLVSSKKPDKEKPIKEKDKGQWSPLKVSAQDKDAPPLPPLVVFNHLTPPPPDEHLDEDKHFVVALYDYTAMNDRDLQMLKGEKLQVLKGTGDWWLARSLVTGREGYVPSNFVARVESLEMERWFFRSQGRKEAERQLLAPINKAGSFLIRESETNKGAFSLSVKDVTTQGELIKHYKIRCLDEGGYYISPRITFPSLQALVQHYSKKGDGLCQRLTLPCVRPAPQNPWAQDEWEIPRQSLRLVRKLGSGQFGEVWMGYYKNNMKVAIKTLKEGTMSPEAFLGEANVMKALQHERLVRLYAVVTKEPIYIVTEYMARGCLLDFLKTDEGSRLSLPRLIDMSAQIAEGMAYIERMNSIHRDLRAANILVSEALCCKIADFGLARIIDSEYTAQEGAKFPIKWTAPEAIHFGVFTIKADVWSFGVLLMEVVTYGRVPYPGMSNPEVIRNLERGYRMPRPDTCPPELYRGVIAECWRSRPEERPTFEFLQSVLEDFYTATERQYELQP

As for `COc1cc2nccc(Oc3ccc(NC(=O)C4(C(=O)Nc5ccc(F)cc5)CC4)cc3)c2cc1OC` [Cabozantinib, reference compound], the inhibition at 1 µM at FGFR3 amounted to 16%; at EPHB1, 99%; at TYK2, 9%; on EPHA7, 106%; at BRAF it was 13%; on ERBB2 (HER2) it was 17%. The inhibition at 1 µM on PIK3CG (p110 gamma) came out at 14%; on EPHA3, 100%; on PIK3C2A (PI3K-C2 alpha) it was 1%; on NTRK3 (TRKC), 97%; at BLK, 83%.

Consider `COc1cc2nccc(Oc3ccc(NC(=O)C4(C(=O)Nc5ccc(F)cc5)CC4)cc3F)c2cc1Oc1ccc(N)cc1F` [Cbo-23], for which the inhibition at 1 µM stood at 13% at FGFR3; 99% on EPHB1; 7% at TYK2; 100% on EPHA7; 3% on BRAF; 54% at ERBB2 (HER2). The inhibition at 1 µM is -7% at PIK3CG (p110 gamma); 97% on EPHA3; -9% at PIK3C2A (PI3K-C2 alpha); 98% at NTRK3 (TRKC); 93% at BLK.

In the case of `COc1cc2nccc(Oc3ccc(NC(=O)C4(NC(=O)c5ccc(F)cc5)CC4)cc3F)c2cc1Oc1ccc(N)cc1F` [Cbo-10], the inhibition at 1 µM at FGFR3 is 19%; at EPHB1, 74%; at TYK2, 9%; at EPHA7, 98%; on BRAF, 4%; at ERBB2 (HER2), 90%. For the same compound, the inhibition at 1 µM on PIK3CG (p110 gamma) is 9%; on EPHA3 it was 14%; at PIK3C2A (PI3K-C2 alpha), -1%; on NTRK3 (TRKC) it was 89%; at BLK, 80%.

For `COc1cc2nccc(Oc3ccc(NC(=O)C4(NC(=O)c5ccc(F)cc5)CC4)cc3F)c2cc1OC` [Cbo-02, N-(1-((4-((6,7-diMethoxyquinolin-4-yl)oxy)-3-fluorophenyl)carbamoyl)cyclopropyl)-4-fluorobenzamide], the inhibition at 1 µM on FGFR3 came to 4%; on EPHB1, 37%; at TYK2 it was 7%; at EPHA7, 84%; on BRAF, 4%; at ERBB2 (HER2), 50%. The inhibition at 1 µM is 4% at PIK3CG (p110 gamma); -3% on EPHA3; 1% at PIK3C2A (PI3K-C2 alpha); 58% on NTRK3 (TRKC); 61% on BLK.

With `COc1cc2nccc(Oc3ccc(NC(=O)C4(NC(=O)c5ccc(F)cc5)CC4)cc3F)c2cc1Oc1c(F)cc(N)cc1F` [Cbo-14], the inhibition at 1 µM worked out at 19% on FGFR3; 75% at EPHB1; 16% at TYK2; 101% at EPHA7; 1% at BRAF; 90% at ERBB2 (HER2). Also, the inhibition at 1 µM is 6% at PIK3CG (p110 gamma); 24% on EPHA3; 1% on PIK3C2A (PI3K-C2 alpha); 98% on NTRK3 (TRKC); 80% at BLK.

A word on the inhibition: it is the change of the read-out against control, counted positive when it falls.
